From patent US20220144847A1, “HETEROCYCLIC COMPOUND, PHARMACEUTICAL COMPOSITION COMPRISING SAME, PREPARATION METHOD THEREFOR, AND USE THEREOF” (Sichuan Kelun-Biotech Biopharmaceutical Co., Ltd., priority 2019, published 2022)
Read-outs that look alike come from different tables or passages of the source. Values belong to the molecule of their own block, whether it stands above or below them.

How the values were obtained:
[1] = Pharmacokinetics and tissue distribution of compounds in rats; format: in vivo; details: male, SD, rat, PO 5 mg/kg; for AUC(0-t): read-out: AUC AUClast; for Cmax: read-out: Peak concentration Cmax; for Kp: read-out: T/P Ratio of AUClast in tissue to plasma; for Tmax: read-out: Time to peak concentration Tmax
Experimental: By intragastric administration (PO) of BLU-667 (prepared according to Example 5 of WO2017/079140A1) and Compound 17 to male SD rats respectively, the plasma concentrations and the tissue concentrations of BLU-667 and Compound 17 in brains, lungs and thyroid of rats were determined to investigate the pharmacokinetic characteristics. The dosage of administration by PO was 5 mg/kg, and the solvent was 0.5% MC (methylcellulose). With administration by PO, blood samples were collected at different time points (0 h before administration, and 0.25 h, 0.5 h, 1 h, 2 h, 4 h, 6 h, 8 h, and 24 h after administration). The blood samples were anticoagulated with dipotassium edetate, and centrifuged to provide plasma samples, which were stored at −80° C. Rats were sacrificed by exsanguination from abdominal aorta at 0.5 h, 2 h, 8 h, and 24 h after PO administration. Brain, lung and thyroid were collected, washed, and homogenized with normal saline at a certain ratio, to provide tissue samples which were stored at −80° C. The plasma samples and tissue samples were processed with precipitated protein and then analyzed by LC-MS/MS. The pharmacokinetic parameters were computed using WinNonlin 6.3 software and using a non-compartmental model.

[2] = tested on: human medullary thyroid carcinoma TT cells; assay: Efficacy test in mice, subcutaneous xenograft tumor of TT cells; format: in vivo, Balb/c-nu mouse; details: 5 mg/kg, PO, BID; TT nude mouse xenograft
Experimental: Experimental purpose: To evaluate the in vivo efficacy of Compound 17 and BLU-667 in a Balb/c-nu mouse model with a subcutaneous xenograft tumor of human medullary thyroid carcinoma TT cells.
Drug preparation: Compound 17 was dissolved in 0.1 M aqueous solution of H3PO4, and BLU-667 was dissolved in 0.1 M aqueous solution of HOAc, to prepare clear solutions (pH: about 4.0). An aqueous solution of H3PO4 at a pH of about 4.0 was used for the solvent control group. The mode of administration was PO, BID.
Tumor measurement: The tumor diameter was measured with a vernier caliper twice a week. The computing formula of the tumor volume is: V=0.5×a×b^2, where a represents a long diameter of the tumor, and b represents a short diameter of the tumor. Evaluation of tumor growth inhibition rate (TGI (%)) for tumor inhibition efficacy of the compounds: TGI (%)=[(1-(mean tumor volume of a treatment group at the end of drug administration-mean tumor volume of the treatment group at the commencement of drug administration))/(mean tumor volume of a solvent control group at the end of treatment-mean tumor volume of the solvent control group at the commencement of treatment)]×100%.
Statistical analysis: Prism Graphpad5.0 software was used for statistical analysis based on the relative tumor volume at the end of the experiment. The comparison between multiple groups was analyzed by two-way ANOVA, and p<0.05 was considered as a significant difference.
Experimental results: In the TT nude mouse xenograft model of human medullary thyroid carcinoma, Compound 17 has a significant […] anti-tumor effect at a dose of 5 mg/kg. […] Relative tumor growth rate T/C (%)=TRTV/CRTV×100%, where TRTV is the mean relative tumor volume of the test compound group, CRTV is the relative tumor volume of the solvent control group; and the relative tumor volume RTV=Vt/V0, where V0 is the mean tumor volume at the commencement of the administration, and Vt is the mean tumor volume measured on day t after the administration.

[3] = biological target: RET-V804M (Homo sapiens, UniProt P07949, V804M); assay: RET inhibition experiment (HTRF KinEASE-TK kit), mutant RET-V804M; format: biochemical; details: read-out: The IC50 (nM) for inhibiting V804M
Summary of the method: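 Enzyme was pre-incubated with compound at room temperature for 30 min, then substrate and ATP were added for a 40 min reaction. HTRF signal was read after 45 min with TK antibody-cryptate and streptavidin-XL665. IC50 came from a four-parameter fit of percent inhibition against DMSO and no-enzyme controls.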

[4] = biological target: RET-WT (Homo sapiens, UniProt P07949); assay: RET inhibition experiment (HTRF KinEASE-TK kit), wild-type RET enzyme; format: biochemical; details: read-out: The IC50 (nM) for inhibiting RET-WT
Experimental: (§1) Experimental method: […] After incubation at room temperature for 40 min, TK antibody-cryptate and streptavidin-XL665 were added, and the test was performed after incubation at room temperature for 45 min. With the solvent group (DMSO) as the negative control and the buffer group (without RET enzyme) as the blank control, the relative inhibitory activity percentages (i.e., inhibition rates) of different concentrations of the compounds were computed as per the following formula: […] The relative inhibitory activity percentages of different concentrations of the compounds were plotted with respect to the compound concentrations, and the curve was fitted according to a four-parameter model to compute the IC50 value as per the following formula: y=min+(max-min)/(1+(x/IC50)^(-Hillslope)) where y is the relative inhibitory activity percentage, max is the maximum value of the fitted curve, min is the minimum value of the fitted curve, x is the logarithmic concentration of the compound, and Hillslope is the slope of the curve.

[5] = biological target: RET-V804L (Homo sapiens, UniProt P07949, V804L); assay: RET inhibition experiment (HTRF KinEASE-TK kit), mutant RET-V804L; format: biochemical; details: read-out: The IC50 (nM) for inhibiting RET-V804L
Experimental: as §1

[6] = biological target: T1, RET-CCDC6 (Homo sapiens, UniProt P07949); assay: RET inhibition experiment (HTRF KinEASE-TK kit), fusion-type RET enzyme; format: biochemical; details: read-out: The IC50 (nM) for inhibiting RET-CCDC6
T1 construct: CCDC6 fusion partner (Q16204 for human); the other entry of the earlier key: CCDC6 (Q16204, Coiled-coil domain-containing protein 6)
T1 sequence (P07949 with tags, fused parts or gaps): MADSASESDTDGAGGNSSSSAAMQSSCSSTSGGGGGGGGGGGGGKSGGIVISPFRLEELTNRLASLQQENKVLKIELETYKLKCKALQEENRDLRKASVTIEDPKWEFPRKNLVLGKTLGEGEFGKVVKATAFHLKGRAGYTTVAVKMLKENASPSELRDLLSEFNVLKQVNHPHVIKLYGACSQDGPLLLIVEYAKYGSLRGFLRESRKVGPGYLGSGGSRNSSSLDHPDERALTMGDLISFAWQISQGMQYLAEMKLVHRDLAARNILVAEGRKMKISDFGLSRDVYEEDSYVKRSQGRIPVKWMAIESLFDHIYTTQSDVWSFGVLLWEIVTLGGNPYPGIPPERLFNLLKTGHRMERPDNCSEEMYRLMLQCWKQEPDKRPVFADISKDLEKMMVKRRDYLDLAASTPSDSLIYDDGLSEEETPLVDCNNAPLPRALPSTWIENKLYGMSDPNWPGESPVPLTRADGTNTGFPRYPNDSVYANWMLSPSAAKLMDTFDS
Experimental: as §1

[7] = biological target: VEGFR2 (Homo sapiens, UniProt P35968); assay: VEGFR2 inhibition experiment (HTRF KinEASE-TK kit); format: biochemical; details: read-out: Inhibition rate on VEGFR2; for inhibition at 0.1 µM: 100 nM
Summary of the method: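 HTRF KinEASE-TK format: enzyme and compound were preincubated 30 min at room temperature, then substrate and ATP added for 40 min, followed by cryptate antibody/streptavidin-XL665 detection for 45 min. Inhibition was normalised to DMSO and no-enzyme controls; IC50 from a four-parameter fit.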

[8] = biological target: RET-M918T (Homo sapiens, UniProt P07949, M918T); assay: RET inhibition experiment (HTRF KinEASE-TK kit), mutant RET-M918T; format: biochemical; details: read-out: The IC50 (nM) for inhibiting the enzyme RET-M918T
Experimental: as §1

RET-V804L, sequence (P07949 29-1114 V804L): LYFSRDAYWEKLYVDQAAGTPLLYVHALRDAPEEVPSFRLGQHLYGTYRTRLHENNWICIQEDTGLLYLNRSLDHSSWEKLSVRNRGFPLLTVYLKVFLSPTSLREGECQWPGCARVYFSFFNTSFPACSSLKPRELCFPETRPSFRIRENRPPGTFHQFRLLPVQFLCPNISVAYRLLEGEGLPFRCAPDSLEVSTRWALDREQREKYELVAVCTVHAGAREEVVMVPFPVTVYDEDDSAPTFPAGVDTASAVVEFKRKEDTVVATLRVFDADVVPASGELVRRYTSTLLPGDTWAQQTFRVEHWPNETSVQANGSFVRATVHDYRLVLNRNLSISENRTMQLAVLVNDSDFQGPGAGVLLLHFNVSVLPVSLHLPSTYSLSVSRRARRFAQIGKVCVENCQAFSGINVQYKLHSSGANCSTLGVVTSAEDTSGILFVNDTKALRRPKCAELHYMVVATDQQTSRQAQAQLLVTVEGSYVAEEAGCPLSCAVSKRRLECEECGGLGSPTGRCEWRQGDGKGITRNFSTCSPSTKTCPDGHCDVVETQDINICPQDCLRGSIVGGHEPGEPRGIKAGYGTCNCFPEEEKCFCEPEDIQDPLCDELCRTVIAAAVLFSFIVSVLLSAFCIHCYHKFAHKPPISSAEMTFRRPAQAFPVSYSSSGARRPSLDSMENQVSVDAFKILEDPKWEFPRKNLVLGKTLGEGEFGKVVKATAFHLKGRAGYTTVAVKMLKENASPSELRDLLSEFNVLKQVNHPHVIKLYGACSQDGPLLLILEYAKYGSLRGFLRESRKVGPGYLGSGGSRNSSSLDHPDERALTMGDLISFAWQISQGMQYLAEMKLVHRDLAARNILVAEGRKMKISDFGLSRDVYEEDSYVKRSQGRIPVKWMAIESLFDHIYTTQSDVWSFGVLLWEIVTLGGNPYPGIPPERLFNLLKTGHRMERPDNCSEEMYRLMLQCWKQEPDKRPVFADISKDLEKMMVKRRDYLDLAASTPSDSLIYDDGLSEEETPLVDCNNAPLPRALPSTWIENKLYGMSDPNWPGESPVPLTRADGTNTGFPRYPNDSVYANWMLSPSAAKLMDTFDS
RET-WT, sequence (P07949 29-1114): as the sequence (P07949 29-1114 V804L) above, with L776V counted along it
VEGFR2, sequence (P35968 20-1356, species assumed): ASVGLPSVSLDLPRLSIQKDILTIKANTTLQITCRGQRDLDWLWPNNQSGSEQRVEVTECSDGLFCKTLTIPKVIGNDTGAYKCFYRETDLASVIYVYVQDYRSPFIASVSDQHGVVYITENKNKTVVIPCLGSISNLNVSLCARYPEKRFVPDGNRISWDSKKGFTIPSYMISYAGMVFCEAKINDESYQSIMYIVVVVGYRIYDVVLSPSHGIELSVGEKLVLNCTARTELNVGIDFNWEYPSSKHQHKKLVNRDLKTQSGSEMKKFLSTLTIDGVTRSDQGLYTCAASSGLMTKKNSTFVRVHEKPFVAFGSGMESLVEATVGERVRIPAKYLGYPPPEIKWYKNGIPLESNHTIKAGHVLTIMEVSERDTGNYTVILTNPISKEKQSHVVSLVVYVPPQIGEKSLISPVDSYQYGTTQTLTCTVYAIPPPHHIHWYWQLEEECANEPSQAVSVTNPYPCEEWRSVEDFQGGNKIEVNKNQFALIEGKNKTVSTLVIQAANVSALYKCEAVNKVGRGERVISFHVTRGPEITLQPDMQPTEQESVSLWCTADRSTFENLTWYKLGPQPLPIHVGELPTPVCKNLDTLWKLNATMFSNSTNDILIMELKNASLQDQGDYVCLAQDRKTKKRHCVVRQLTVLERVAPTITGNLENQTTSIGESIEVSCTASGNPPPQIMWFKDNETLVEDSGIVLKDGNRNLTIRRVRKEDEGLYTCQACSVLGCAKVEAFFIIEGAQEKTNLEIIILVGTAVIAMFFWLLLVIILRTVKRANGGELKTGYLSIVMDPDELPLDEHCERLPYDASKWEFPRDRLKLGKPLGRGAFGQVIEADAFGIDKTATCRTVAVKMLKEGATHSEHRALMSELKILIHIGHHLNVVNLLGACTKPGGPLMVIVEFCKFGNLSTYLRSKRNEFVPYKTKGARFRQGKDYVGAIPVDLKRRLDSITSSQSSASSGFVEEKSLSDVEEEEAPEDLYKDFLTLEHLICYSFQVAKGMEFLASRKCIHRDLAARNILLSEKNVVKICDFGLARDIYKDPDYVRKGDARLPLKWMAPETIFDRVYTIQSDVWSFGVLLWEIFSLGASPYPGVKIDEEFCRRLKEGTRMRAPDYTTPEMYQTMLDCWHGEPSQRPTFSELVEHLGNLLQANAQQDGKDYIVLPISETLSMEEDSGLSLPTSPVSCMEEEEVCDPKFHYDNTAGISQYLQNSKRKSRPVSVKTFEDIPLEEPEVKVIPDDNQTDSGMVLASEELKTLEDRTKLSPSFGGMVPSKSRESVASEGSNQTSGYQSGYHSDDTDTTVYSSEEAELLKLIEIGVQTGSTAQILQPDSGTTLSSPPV
RET-M918T, sequence (P07949 29-1114 M918T): as the sequence (P07949 29-1114 V804L) above, with L776V, M890T counted along it
RET-V804M, sequence (P07949 29-1114 V804M): as the sequence (P07949 29-1114 V804L) above, with L776M counted along it

AUC(0-t) ([1]; brain): 157 ng·h/mL | Cmax ([1]; brain): 30.8 ng/mL | Kp ([1]; brain): 0.018 | Tmax ([1]; brain): 30 min | AUC(0-t) ([1]; lung): 25100 ng·h/mL | Cmax ([1]; lung): 3570 ng/mL | Kp ([1]; lung): 2.9 | Tmax ([1]; lung): 30 min | AUC(0-t) ([1]; plasma): 8650 ng·h/mL | Cmax ([1]; plasma): 1490 ng/mL | Kp ([1]; plasma): 1 | Tmax ([1]; plasma): 60 min | AUC(0-t) ([1]; thyroid): 6350 ng·h/mL | Cmax ([1]; thyroid): 888 ng/mL | Kp ([1]; thyroid): 0.73 | Tmax ([1]; thyroid): 30 min
Compound: CO[C@]1(C(=O)N[C@@H](C)c2ccc(-n3cc(F)cn3)nc2)CC[C@H](c2nc(C)cc(Nc3cc(C)[nH]n3)n2)CC1 [BLU-667, reference compound]
Relative tumor growth rate T/C [2]: 33.62% | Tumor growth inhibition rate TGI [2]: 88.82%

Compound: Cc1cc(Nc2cc(C)[nH]n2)nc(-c2ccc(N3CC4CC(C3)N4Cc3ccc(-n4cccn4)nc3)nc2)n1 [Compound 60, 2-(6-(6-((6-(1H-pyrazol-1-yl)pyridin-3-yl)methyl)-3,6-diazabicyclo[3.1.1]heptan-3-yl)pyridin-3-yl)-6-methyl-N-(5-methyl-1H-pyrazol-3-yl)pyrimidin-4-amine]
IC50 [3]: 3.77 ± 0.52 nM | IC50 [4]: 2.7 ± 0.69 nM | IC50 [5]: 5.07 ± 0.4 nM | IC50 [6]: 3.99 ± 0.79 nM | inhibition at 0.1 µM [7]: 65% | IC50 [8]: 1.29 ± 0.27 nM

Compound: Cc1cc(Nc2cc(C)[nH]n2)nc(-c2ccc(N3CC4CC(C3)N4Cc3ccc(-n4ccc(C5CC5)n4)nc3)nc2)n1 [Compound 120, 2-(6-(6-((6-(3-cyclopropyl-1H-pyrazol-1-yl)pyridin-3-yl)methyl)-3,6-diazabicyclo[3.1.1]heptan-3-yl)pyridin-3-yl)-6-methyl-N-(5-methyl-1H-pyrazol-3-yl)pyrimidin-4-amine]
IC50 [3]: 9.12 ± 1.85 nM | IC50 [4]: 7.33 ± 1.19 nM | IC50 [5]: 10.1 ± 1.05 nM | IC50 [6]: 18.7 ± 7.27 nM | inhibition at 0.1 µM [7]: 28% | IC50 [8]: 15.8 ± 3.65 nM

Compound: Cc1cc(Nc2cc(C)[nH]n2)nc(-c2ccc(N3CC4CC(C3)N4Cc3ccc(-n4ncc(F)c4C)nc3)nc2)n1 [Compound 122, 2-(6-(6-((6-(4-fluoro-5-methyl-1H-pyrazol-1-yl)pyridin-3-yl)methyl)-3,6-diazabicyclo[3.1.1]heptan-3-yl)pyridin-3-yl)-6-methyl-N-(5-methyl-1H-pyrazol-3-yl)pyrimidin-4-amine]
IC50 [3]: 3.33 ± 0.75 nM | IC50 [4]: 2.35 ± 0.24 nM | IC50 [5]: 4.79 ± 1.68 nM | IC50 [6]: 2.91 ± 0.41 nM | inhibition at 0.3 µM ([7]; 300 nM): 67% | IC50 [8]: 4.03 ± 0.66 nM
